SMILES strings stand for the structures. Counter-ions that a name gives are not always drawn. Where only a bound is given, the exact number is not on record here.

This assay addresses T1, human recombinant ENPP1 enzymes (Homo sapiens, UniProt P22413).
T1 construct: purchased R & D systems
T1 sequence (P22413 1-925): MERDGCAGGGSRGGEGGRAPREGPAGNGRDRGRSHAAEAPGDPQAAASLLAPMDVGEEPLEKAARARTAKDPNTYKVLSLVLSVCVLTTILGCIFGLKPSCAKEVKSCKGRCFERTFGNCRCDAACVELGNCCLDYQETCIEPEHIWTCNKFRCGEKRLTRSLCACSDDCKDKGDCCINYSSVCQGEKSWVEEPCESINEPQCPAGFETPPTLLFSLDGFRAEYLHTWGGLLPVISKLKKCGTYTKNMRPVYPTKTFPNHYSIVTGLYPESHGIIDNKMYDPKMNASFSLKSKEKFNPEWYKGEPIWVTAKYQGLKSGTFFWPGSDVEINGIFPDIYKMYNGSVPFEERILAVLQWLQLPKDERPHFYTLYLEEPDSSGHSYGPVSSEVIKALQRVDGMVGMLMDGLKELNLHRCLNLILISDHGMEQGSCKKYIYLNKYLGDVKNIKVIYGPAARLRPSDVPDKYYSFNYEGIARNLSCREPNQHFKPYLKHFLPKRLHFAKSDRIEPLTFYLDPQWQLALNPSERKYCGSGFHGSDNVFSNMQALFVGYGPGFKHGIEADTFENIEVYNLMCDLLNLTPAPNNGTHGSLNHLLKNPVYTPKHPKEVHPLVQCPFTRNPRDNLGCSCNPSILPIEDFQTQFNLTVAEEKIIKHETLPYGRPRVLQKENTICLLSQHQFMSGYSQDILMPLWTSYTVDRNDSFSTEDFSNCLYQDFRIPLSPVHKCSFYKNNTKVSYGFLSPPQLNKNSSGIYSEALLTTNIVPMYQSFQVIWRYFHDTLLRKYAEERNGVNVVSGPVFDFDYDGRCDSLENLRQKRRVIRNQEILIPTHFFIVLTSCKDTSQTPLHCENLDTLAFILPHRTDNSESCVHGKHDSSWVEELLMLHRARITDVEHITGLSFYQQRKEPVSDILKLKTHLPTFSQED
Briefly: ENPP1 Enzyme Assay with cGAMP Substrate (AMP-Glo). It counts as biochemical. As to conditions: human recombinant ENPP1, cGAMP 5 μM, 37° C. 90 minutes, AMP-Glo luminescence; read-out: Enzymatic activity (IC50). On the procedure:
ENPP1 hydrolyzes nucleotides or nucleotide derivatives to produce nucleoside-5′-monophosphate and pyrophosphate. In addition, ENPP1 hydrolyzes 2′,3′-cGAMP to produce 5′-adenosine monophosphate (AMP) and 5′-guanosine monophosphate (GMP). AMP produced from the reaction is measured using the AMP-Glo® kit (Promega). The AMP-Glo® kit contains two reagents. The first reagent terminates the AMP-producing enzymatic reaction, removes ATP and converts the produced AMP into ADP. The second reagent converts ADP into ATP which is used to generate luminescence in the luciferase reaction. The amount of luminescence measured is proportional to the amount of AMP produced by ENPP1.
The final reaction solution contains 50 mM Tris (pH 8.5) buffer, 250 mM NaCl, 0.5 mM CaCl2), 1 μM ZnCl2, 5% glycerol and 1% DMSO. Serially diluted ENPP1 inhibitors (typically in the range of 10 μM to 0.5 nM) were pre-stored with human recombinant ENPP1 enzymes (R & D systems) at 3 ng/reaction and room temperature (RT) for 5 to 10 minutes. The reaction was initiated by addition of cGAMP (at a final concentration of 5 μM) and reacted at 37° C. for 90 minutes. At the end of the reaction, 10 μl of the AMP-Glo first reagent was added to stop the reaction and the result was stored at room temperature for 1 hour. After storage, 20 μl of an AMP detection solution (a mixture of AMP-Glo II reagent and Kinase-Glo at a ratio of 1:100) was added and stored at room temperature for 1 hour. Luminescence signals were measured using a Victor® plate reader (Perkin Elmer). The maximal activity control (containing enzymes and substrates in the presence of 1% DMSO; MAX) and the minimal activity control (containing substrates and 1% DMSO; MIN) were evaluated simultaneously. In each experiment, serially diluted reference ENPP1 inhibitors were tested as well. IC50, indicating % residual activity versus compound concentration was determined by fitting inhibition curves using the 3-parameter analysis of GraphPad Prism® software. Serially diluted samples of one compound were tested two or more times and an average IC50 of each compound was calculated.
As for `COc1ccc2c(c1)nnn2C1CCNCC1` [Example 1, 5-methoxy-1-(piperidin-4-yl)-1H-benzo[d][1,2,3]triazole Hydrochloride], the IC50 was > 10 µM.

Take `COc1ccc2c(c1)nnn2C1CCC(CN)CC1` (centres unmarked) [Example 2]: the IC50 was > 10 µM.

As for `COc1ccc2c(c1)nnn2CC1CCNCC1` [Example 3, 5-methoxy-1-(piperidin-4-ylmethyl)-1H-benzo[d][1,2,3]triazole], the IC50 lay within 1 to 10 µM.

Regarding `COc1ccc2c(c1)nnn2-c1ccc(N)cc1` [Example 4, 4-(5-methoxy-1H-benzo[d][1,2,3]triazol-1-yl)aniline Hydrochloride], the IC50 fell in the range of 1 to 10 µM.

Regarding `NCc1ccc(-n2nnc3ccccc32)cc1` [Example 5, 4-(1H-benzo[d][1,2,3]triazol-1-yl)phenyl)methanamine Hydrochloride], the half-inhibitory concentration (IC50) was < 1 µM.

Regarding `COc1cccc2c1nnn2-c1ccc(CN)cc1` [Example 6, 4-(4-methoxy-1H-benzo[d][1,2,3]triazol-1-yl)phenyl)methanamine Hydrochloride], the IC50 was > 10 µM.

Take `COc1ccc2nnn(-c3ccc(CN)cc3)c2c1` [Example 7, 4-(6-methoxy-1H-benzo[d][1,2,3]triazol-1-yl)phenyl)methanamine Hydrochloride]: the IC50 is > 10 µM.

On to `COc1cccc2nnn(-c3ccc(CN)cc3)c12` [Example 8, 4-(7-methoxy-1H-benzo[d][1,2,3]triazol-1-yl)phenyl)methanamine Hydrochloride], for which the 50% inhibitory concentration (IC50) was > 10 µM.

As for `COc1cc(OC)c2nnn(-c3ccc(CN)cc3)c2c1` [Example 9, 4-(4,6-dimethoxy-1H-benzo[d][1,2,3]triazol-1-yl)phenyl)methanamine Hydrochloride], the IC50 is 1 to 10 µM.

As for `COc1cc2nnn(-c3ccc(CN)cc3)c2cc1OC` [Example 10, 4-(5,6-dimethoxy-1H-benzo[d][1,2,3]triazol-1-yl)phenyl)methanamine Hydrochloride], the IC50 is 1 to 10 µM.

In the case of `COc1ccc2c(c1)nnn2-c1cccc(CCN)c1` [Example 11, 2-(3-(5-methoxy-1H-benzo[d][1,2,3]triazol-1-yl)phenyl)ethan-1-amine Hydrochloride], the IC50 is > 10 µM.

Take `CNCc1ccc(-n2nnc3cc(OC)ccc32)cc1` [Example 12, 1-(4-(5-methoxy-1H-benzo[d][1,2,3]triazol-1-yl)phenyl)-N-methylmethanamine Hydrochloride]: the IC50 is > 10 µM.

As for `COc1ccc2c(c1)nnn2-c1ccc(CNC2CC2)cc1` [Example 13, N-(4-(5-methoxy-1H-benzo[d][1,2,3]triazol-1-yl)-benzyl)cyclopropanamine Hydrochloride], the half-inhibitory concentration (IC50) was > 10 µM.

`COc1ccc2c(c1)nnn2-c1ccc([C@H](C)N)cc1` [Example 14, (S)-1-(4-(5-methoxy-1H-benzo[d][1,2,3]triazol-1-yl)phenyl)ethan-1-amine Hydrochloride]: the IC50 is < 1 µM.

On to `COc1ccc2c(c1)nnn2-c1ccc(CN)cc1Cl` [Example 15, 3-chloro-4-(5-methoxy-1H-benzo[d][1,2,3]triazol-1-yl)phenyl)methanamine Hydrochloride], for which the IC50 was < 1 µM.

Regarding `COc1ccc2c(c1)nnn2-c1cc(F)c(CN)cc1F` [Example 17], the IC50 is > 10 µM.

As for `COc1ccc2c(c1)nnn2-c1cc(F)c(CN)c(F)c1` [Example 18], the half-maximal inhibitory concentration (IC50) is > 10 µM.

Turning to `CCOc1ccc2c(c1)nnn2-c1ccc(CN)cc1F` [Example 19], the half-inhibitory concentration (IC50) was > 10 µM.

Regarding `CC(C)Oc1ccc2c(c1)nnn2-c1ccc(CN)cc1F` [Example 20], the IC50 is > 10 µM.

For `CC(F)(F)c1ccc2c(c1)nnn2-c1ccc(CN)cc1` [Example 21], the IC50 was > 10 µM.

Take `CC(F)(F)c1ccc2c(c1)nnn2-c1ccc(CN)cc1F` [Example 22]: the IC50 is > 10 µM.

For `NCc1ccc(-n2nnc3cc(OCF)ccc32)c(F)c1` [Example 23], the concentration for half-maximal inhibition (IC50) is > 10 µM.

As to `NCc1ccc(-n2nnc3cc(OC(F)F)ccc32)c(F)c1` [Example 24], the IC50 is > 10 µM.

For the molecule `COc1ccc2c(c1)nnn2-c1ccc2c(c1)CNCC2` [Example 25, 7-(5-methoxy-1H-benzo[d][1,2,3]triazol-1-yl)-1,2,3,4-tetrahydroisoquinoline Hydrochloride], the half-maximal inhibitory concentration (IC50) was > 10 µM.

On to `COc1ccc2c(c1)nnn2-c1cc2c(cc1F)CNCC2` [Example 26, 7-fluoro-6-(5-methoxy-1H-benzo[d][1,2,3]triazol-1-yl)-1,2,3,4-tetrahydroisoquinoline Hydrochloride], for which the IC50 was > 10 µM.

`COc1ccc2c(c1)nnn2-c1ccc2c(c1)CNCCC2` [Example 27, 8-(5-methoxy-1H-benzo[d][1,2,3]triazol-1-yl)-2,3,4,5-tetrahydro-1H-benzo[c]azepine Hydrochloride]: the half-maximal inhibitory concentration (IC50) is > 10 µM.

With `COc1cc2nnn(-c3cc(F)c(CN)cc3F)c2cc1OC` [Example 28], the IC50 is > 10 µM.

For the molecule `COc1cc2nnn(-c3ccc4c(c3)CNC4)c2cc1OC` [Example 29, 1-(isoindolin-5-yl)-5,6-dimethoxy-1H-benzo[d][1,2,3]triazole Hydrochloride], the IC50 is > 10 µM.

On to `COc1ccc2c(c1)nnn2C12CC(CN)(C1)C2` [Example 30], for which the IC50 is > 10 µM.

For `COc1ccc2c(c1)nnn2-c1cc(C)sc1CN` [Example 31, 3-(5-methoxy-1H-benzo[d][1,2,3]triazol-1-yl)-5-methylthiophen-2-yl)methanamine Hydrochloride], the IC50 is > 10 µM.

Regarding `COc1ccc2c(c1)nnn2C1CCC(CNS(N)(=O)=O)C1` (centres unmarked) [Example 41, N-((3-(5-methoxy-1H-benzo[d][1,2,3]triazol-1-yl)cyclopentyl)methyl)sulfamide], the IC50 is < 1 µM.

Consider `COc1ccc2c(c1)nnn2C1CCN(S(N)(=O)=O)CC1` [Example 42, 4-(5-methoxy-1H-benzo[d][1,2,3]triazol-1-yl)piperidine-1-sulfonamide], for which the half-inhibitory concentration (IC50) was > 10 µM.

As to `COc1ccc2c(c1)nnn2C1CCC(CNS(N)(=O)=O)CC1` (centres unmarked) [Example 43, N-((4-(5-methoxy-1H-benzo[d][1,2,3]triazol-1-yl)cyclohexyl)methyl)sulfamide], the half-maximal inhibitory concentration (IC50) is < 1 µM.

Regarding `COc1ccc2c(c1)nnn2C1CCN(CCS(N)(=O)=O)CC1` [Example 44, 2-(4-(5-methoxy-1H-benzo[d][1,2,3]triazol-1-yl)piperidin-1-yl)ethane-1-sulfonamide], the concentration for half-maximal inhibition (IC50) was < 1 µM.

On to `COc1ccc2c(c1)nnn2CC1CCN(S(N)(=O)=O)CC1` [Example 45, 4-((5-methoxy-1H-benzo[d][1,2,3]triazol-1-yl)methyl)piperidine-1-sulfonamide], for which the half-maximal inhibitory concentration (IC50) was < 1 µM.

For `NS(=O)(=O)NCc1ccc(-n2nnc3ccccc32)cc1` [Example 46, N-(4-(1H-benzo[d][1,2,3]triazol-1-yl)benzyl)sulfamide], the IC50 lay within 1 to 10 µM.

As to `COc1ccc2c(c1)nnn2-c1cccc(NS(N)(=O)=O)c1` [Example 47, N-(3-(5-methoxy-1H-benzo[d][1,2,3]triazol-1-yl)phenyl)sulfamide], the concentration for half-maximal inhibition (IC50) was 1 to 10 µM.

For `COc1ccc2c(c1)nnn2-c1ccc(NS(N)(=O)=O)cc1` [Example 48, N-(4-(5-methoxy-1H-benzo[d][1,2,3]triazol-1-yl)phenyl)sulfamide Hydrochloride], the half-maximal inhibitory concentration (IC50) was < 1 µM.

For the origin of these results see patent publication US20240116882A1, “NOVEL BENZOTRIAZOLE DERIVATIVE HAVING INHIBITORY ACTIVITY AGAINST ECTONUCLEOTIDE PYROPHOSPHATASE-PHOSPHODIESTERASE, AND USE THEREOF” (TXINNO BIOSCIENCE INC., priority 2021, published 2024).
